Laboratory results published in patent US20090209474A1, “NOVEL USES FOR DRUGS TARGETING GLUTAMINE SYNTHETASE” (NEWTHERA, priority 2005, published 2009).

Experiments:
GS (mung bean) = settings: cited from earlier work
[1] = Adrenal weight of rats administered methylprednisolone; type: in vivo, Wistar rats
Experimental: Wistar rats were administered during 21 days once a day with methyprednisolone (5 mg/kg i.p.) plus GF (0.001, 0.01, 0.1 mg/kg), NF (1 and 10 mg/kg) or vehicle (PCB; i.p). Twenty-four hours after the last administrations, they were euthanatized. A complete necropsy was performed and main organs weighted.

Wistar rat brain GS = target: T1, Wistar rat brain GS (Rattus norvegicus, UniProt P09606); assay: GS activity in Wistar rat brain homogenates; type: biochemical; settings: in absence of 2β-ME
T1 construct: from tissue; host or cells: Wistar rat brain homogenate or membranes; in A19 also liver and lungs
Experimental: GS activity was assessed as mentioned above for purified sheep brain GS.

GS [2] = target: GS (Rattus norvegicus, UniProt P09606); type: in vivo, Wistar rats; design: from tissue; host or cells: Wistar rat brain homogenate or membranes; in A19 also liver and lungs
Experimental: (§1) Cortex, hippocampi and thalamus/hypothalamus were carefully isolated immediately after euthanasia. Membranes were prepared and the activity of GS determined in these different structures (as mentioned above for the whole brain).

purified pig brain GS = target: T2, purified pig brain GS (Sus scrofa, UniProt P46410); assay: Interaction of NF and purified pig GS (agarose diffusion, precipitation, spot blot, western blot); type: binding
T2 construct: Fifty microlitre of purified pig brain GS (3 mg/ml) was added to one peripheral well; from tissue; host or cells: pig brain (purified enzyme)
Experimental: Five ml of agarose 0.1% were let to polymerise in a Petri dish. Five wells with equal volume and distance from each other, 1 central and 4 peripherals, were made on it using a 300 μl tip. The central well was filed with 50 μl of NF solution ([…]). Fifty microlitre of purified pig brain GS (3 mg/ml) was added to one peripheral well. In two other wells either 50 μl of TBS or FCS was added. The gel was humidified and left at 37° C. for 48 h.
The final concentration of methanol per assay tube was 10% V/V. Fixed (3 mg/ml) or variable (0.023 to 3 mg/ml) concentrations of either purified brain pig GS or rat brain homogenates were added to each assay tube. The tubes were incubated a room temperature for 5 min. Methanol (10%) and FCS were used as negative controls. The tubes were thereafter centrifuged at 700 g. Supernatant was discarded and the pellets were suspended in 100 μl working buffer and incubated for 15 min at 37° C. The reaction was finally stopped and absorbance was measured as described above.
Twenty μl of agarose gel with precipitated NF/protein complexes issued from diffusion study was applied to methanol activated PVDF membrane. Non-specific binding sites were blocked by 5% low fat skimmed milk in TBS buffer, supplemented with 0.1% tween 20. Transferred proteins were allowed to react with either polyclonal rabbit anti-GS (1/3000) or anti-GR (1/3000) antibodies for 30 min at room temperature. After one quick wash with TBS, 0.1% tween 20, horseradish peroxidase conjugated goat anti-rabbit antibody was subjected (1/5000) to the transferred proteins for 30 min at room temperature.
Twenty μl per well of precipitated NF/protein complex were separated on 8% SDS-PAGE gel in absence or presence of 2β-mercaptoethanol. The proteins separated in presence or the absence of SDS were thereafter transferred to a nitrocellulose membrane ([…]). Non-specific binding sites were blocked by 5% low fat skimmed milk in TBS buffer, supplemented with 0.1% tween 20. Transferred proteins were thereafter allowed to react with either polyclonal rabbit anti-GS (1/3000) or anti-GR (1/3000) antibodies for 30 min at room temperature. After one quick wash with TBS, 0.1% tween 20, horseradish peroxidase conjugated goat anti-rabbit antibody was subjected (1/5000) to the transferred proteins for 30 min at room temperature.

glutamine synthetase = target: T3, glutamine synthetase (Rattus norvegicus, UniProt P09606); assay: Proteins precipitated by NF from rat brain homogenate (mass spectrometry); type: binding; settings: 8% gel, native conditions
T3 construct: Wistar rat brain homogenates were incubated with naftazone; from tissue; host or cells: Wistar rat brain homogenate or membranes; in A19 also liver and lungs

GS [3] = target: GS (Mus musculus, UniProt P15105); type: in vivo, BALB/c mice; design: from tissue; host or cells: mouse brain (whole brain, cortex, hippocampus, thalamus/hypothalamus); settings: 24 h after single i.p., NF 10 and 100 mg/kg
Experimental: as §1

Chain of GS (Rattus norvegicus, UniProt P09606) (P09606 2-373 limits assumed): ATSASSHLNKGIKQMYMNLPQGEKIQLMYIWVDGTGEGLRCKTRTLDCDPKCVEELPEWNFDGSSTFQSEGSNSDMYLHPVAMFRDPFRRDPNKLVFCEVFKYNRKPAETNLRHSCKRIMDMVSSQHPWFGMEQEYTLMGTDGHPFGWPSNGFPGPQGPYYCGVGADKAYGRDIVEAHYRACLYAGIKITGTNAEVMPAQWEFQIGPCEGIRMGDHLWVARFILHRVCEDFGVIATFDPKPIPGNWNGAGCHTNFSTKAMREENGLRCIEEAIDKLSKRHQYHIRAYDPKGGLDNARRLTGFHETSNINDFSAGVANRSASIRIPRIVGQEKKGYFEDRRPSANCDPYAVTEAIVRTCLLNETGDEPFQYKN
T2 sequence (P46410 2-373 limits assumed): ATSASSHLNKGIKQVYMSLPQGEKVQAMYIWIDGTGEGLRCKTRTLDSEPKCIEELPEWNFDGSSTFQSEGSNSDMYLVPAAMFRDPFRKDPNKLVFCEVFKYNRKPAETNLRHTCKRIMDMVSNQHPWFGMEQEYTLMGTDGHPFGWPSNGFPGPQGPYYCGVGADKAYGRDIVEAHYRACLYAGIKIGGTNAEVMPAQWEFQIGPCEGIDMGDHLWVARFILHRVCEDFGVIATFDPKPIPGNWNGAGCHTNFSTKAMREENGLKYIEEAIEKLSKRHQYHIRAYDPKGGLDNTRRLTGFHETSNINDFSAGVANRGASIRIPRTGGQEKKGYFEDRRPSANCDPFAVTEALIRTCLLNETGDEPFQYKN
T3 sequence (P09606 2-373 limits assumed): as the sequence (P09606 2-373 limits assumed) above
Chain of GS (Mus musculus, UniProt P15105) (P15105 2-373 limits assumed): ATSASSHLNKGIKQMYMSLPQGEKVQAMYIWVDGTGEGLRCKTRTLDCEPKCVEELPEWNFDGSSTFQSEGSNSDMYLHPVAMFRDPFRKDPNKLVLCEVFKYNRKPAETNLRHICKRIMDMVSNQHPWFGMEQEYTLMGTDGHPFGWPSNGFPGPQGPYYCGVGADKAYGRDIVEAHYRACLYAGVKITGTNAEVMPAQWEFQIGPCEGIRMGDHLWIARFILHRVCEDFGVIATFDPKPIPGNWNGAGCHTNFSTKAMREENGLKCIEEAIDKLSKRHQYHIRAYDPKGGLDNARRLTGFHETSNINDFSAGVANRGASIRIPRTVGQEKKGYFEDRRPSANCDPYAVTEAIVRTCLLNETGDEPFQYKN
T1 sequence (P09606 2-373 limits assumed): as the sequence (P09606 2-373 limits assumed) above

Compound: NC1(C(=O)O)CCC(P(=O)(O)O)C1 (centres unmarked) [Cyclopentane phosphinothricin, 1-Amino-3-phosphono-cyclopentane-carboxylic acid]
- Ki (GS (mung bean)): 0.47 µM

Compound: NC(=O)NN=C1C=Cc2ccccc2C1=O [NF, 1-oxo, 2 naphtyl semicarbazone]
- adrenal weight ([1]; GF 0.001, 0.01, 0.1 mg/kg, NF 1 and 10 mg/kg, methyprednisolone 5 mg/kg i.p., 21 days, versus PCB): higher
- dose relation of the effect on adrenal weight ([1]; rat, in vivo): dose-dependent effect
- “high” concentration range inhibiting GS activity (Wistar rat brain GS): 10^−12 to 10^−14 M
- GS activity in the cortex (GS [2]; NF 1 and 10 mg/kg i.p.): No significant treatment-effect
- GS activity in the hippocampus (GS [2]; NF 1 and 10 mg/kg i.p.): increased GS activity
- GS activity in the thalamus/hypothalamus (GS [2]; NF 1 and 10 mg/kg i.p., twenty four hours after administration): dose-dependently decreased GS activity
- dose of maximum effect on hippocampus GS activity (GS [2]; rat, in vivo): 1 mg/kg
- interaction between NF and purified pig GS in agarose (0.1%) gel (purified pig brain GS; Commassie blue): revealed a clear precipitated protein
- precipitation of GS protein by different concentration of NF (purified pig brain GS; NF 6.3e^−19 to 4.8e^−7 M, GS 3 mg/ml): precipitated dose dependently GS protein
- identity of the precipitated protein (dotblot) (purified pig brain GS; anti-GS antibodies): revealed specifically glutamine synthetase
- precipitated proteins subjected to rabbit anti-GR antibodies (purified pig brain GS; purified pig GS and whole rat brain homogenates): did not reveal any protein
- presence of G-actin in the isolated band (glutamine synthetase): 70%
- presence of glutamine synthetase in the isolated band (glutamine synthetase): 30%
- GS activity in the hippocampus (GS [3]): trend to an increase of GS activity
- GS activity in the thalamus/hypothalamus (GS [3]; GF 1 mg/kg): decreased

Compound: NC1(C(=O)O)COC(P(=O)(O)O)C1 (centres unmarked) [Tetrahydrofuran phosphinothricin, 3-Amino-5-phosphono-tetrahydro-furan-3-carboxylic acid]
- Ki (GS (mung bean)): 5 µM
